The record followed here is patent publication US20110263429A1, “Pesticidal Combinations” (priority 2008, published 2011).

The subject of test [1] is cutworm (Spodoptera littoralis). The test is described as follows: Field seed-treatment trial, plant count per plot. Format: in vivo. Particulars: field with heavy Spodoptera littoralis population, plants per plot counted 13 days after planting, 4 replicates, fludioxonil + mefenoxam base treatment. An excerpt: (§1) An unexpected effect exists whenever the action of an active ingredient combination is greater than the sum of the actions of the individual components.
(§2) The action to be expected E for a given active ingredient combination obeys the so-called COLBY formula and can be calculated as follows (COLBY, S. R. “Calculating synergistic and antagonistic responses of herbicide combination”. Weeds, Vol. 15, pages 20-22; 1967):
(§3) ppm=milligrams of active ingredient (=a.i.) per liter of spray mixture X=% action by active ingredient A) using p ppm of active ingredient Y=% action by active ingredient B) using q ppm of active ingredient.
(§4) According to COLBY, the expected (additive) action of active ingredients A)+B) using p+q ppm of active ingredient is
(§5) If the action actually observed (O) is greater than the expected action (E), then the action of the combination is super-additive, i.e. there is a synergistic effect.
In a field having a heavy population of cutworm (Spodoptera littoralis), seeds are planted that have the following treatments: • (a) a compound of formula (X) (0.6 mg ai/seed) • (b) thiamethoxam (0.63 mg ai/seed) • (c) a compound of formula (X) (0.6 mg ai/seed)+thiamethoxam (0.63 mg ai/seed)
For all treatments, including check, fludioxonil (2.5 g ai/100 kg seeds) and mefenoxam (1.0 g ai/100 kg seeds) were used as a fungicide base treatment. […]

Another test has as its system cutworm (Agrotis sp.). Briefly: Field seed-treatment trial, cutworm larvae count per plot. Format: in vivo. As to conditions: for Control (%) Observed: seed treatment, field with heavy Agrotis sp. population, larvae per plot counted 22 days after planting, 4 replicates, fludioxonil + mefenoxam base treatment.
Description: as §1, §2, §3, §4, §5
In a field having a heavy population of cutworm (Agrotis sp.), seeds are planted that have the following treatments: • (a) a compound of formula (X) (0.6 mg ai/seed) • (b) thiamethoxam (0.63 mg ai/seed) • (c) a compound of formula (X) (0.6 mg ai/seed)+thiamethoxam (0.63 mg ai/seed)
For all treatments, including check, fludioxonil (2.5 g ai/100 kg seeds) and mefenoxam (1.0 g ai/100 kg seeds) were used as a fungicide base treatment.
Assessment: Count number larvae per plot (22 days after planting) Number of replicates: 4

Take “mixture of 5,6-Dihydro-3′-O-ethyl Spinosyn J (RN: 187166-40-1 and 3′-O-Ethyl Spinosyn L (RN: 187166-15-0) in a weight ratio of 50-90%:10-50% [(a)]”: the “% Control Observed” value in test [1] came out at 48%. Besides, the “Control (%) Colby expected” value in the test with cutworm (Agrotis sp.) (expected (additive) action by COLBY formula, Agrotis sp., 22 days after planting) turned out to be 15%. In addition, the “Control (%) Observed” value with cutworm (Agrotis sp.) is 50%.
`CN1COCN(Cc2cnc(Cl)s2)/C1=N\[N+](=O)[O-]` [(b), thiamethoxam]: the “% Control Observed” value in test [1] is 40%. Further, in the test with cutworm (Agrotis sp.), the “Control (%) Observed” value worked out at 31%.
